The values below come from US11986471B2, “Compounds and methods of use” (Tango Therapeutics, Inc., priority 2018, dated 2024).

Bounds are passed on as bounds.

Assay [1] addresses T1, PRMT5 (Homo sapiens, UniProt O14744).
T1 construct: purchased Viva (custom protein)
Put plainly: PRMT5 IC50 assay in the presence of SAM as cofactor. The class given is biochemical. The essentials: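 IC50 values were measured against human PRMT5 with SAM, with MTA, or with no cofactor. Ki was derived from IC50 as Ki=IC50/1.5 with SAM and Ki=IC50/13.5 with MTA, and the Ki(SAM)/Ki(MTA) ratio was then taken.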

The target of assay [2] is T1, PRMT5. Briefly: PRMT5 IC50 assay with no cofactor. Format: biochemical. The essentials:
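IC50 against PRMT5 determined with SAM as cofactor, with no cofactor, and with MTA as cofactor. Ki derived as IC50/1.5 for the SAM assay and IC50/13.5 for the MTA assay; SAM Ki to MTA Ki ratio also reported.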

Assay [3] deals with T1, PRMT5. Put plainly: PRMT5 IC50 assay in the presence of MTA as cofactor. Conditions: for IC50: PRMT5, MTA as cofactor. The class given is biochemical. The essentials:
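Each compound is tested on PRMT5 in the presence of SAM, of MTA, and without any cofactor. Ki values are then back-calculated using fixed factors of 1.5 (SAM) and 13.5 (MTA), and the two Ki values are compared as a ratio.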

Assay [4] has as its system HAP1 MTAP-intact. Put plainly: SDMA in-cell western assay, HAP1 MTAP-intact cell line. Conditions: Homo sapiens. Format: cell-based. The essentials:
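Symmetric dimethylarginine (SDMA) levels were measured by in-cell western in an isogenic HAP1 pair, one expressing endogenous MTAP and one MTAP-null, and IC50 values were derived for each line. Compounds whose IC50 ratio between the lines is 3-fold or more are classed as MTAP-selective.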

In assay [5] the test system is HAP1 MTAP-deleted. Briefly: SDMA in-cell western assay, HAP1 MTAP-deleted cell line. The class given is cell-based. As to conditions: for IC50: Homo sapiens, HAP1 MTAP-deleted cell line; for MTAP Intact/Deleted Ratio: IC50 ratio HAP1 MTAP-intact / HAP1 MTAP-deleted. The essentials:
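Symmetric dimethylarginine (SDMA) levels were measured by in-cell western in MTAP-null HAP1 cells, one half of an MTAP-isogenic pair whose partner line expresses endogenous MTAP. Compound potency is reported as IC50.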

[6] abbreviates: ratio between Ki in the presence of SAM and Ki in the presence of MTA.
Setting [7] is: ratio between the Ki in the presence of SAM and the Ki in the presence of MTA.

T1 sequence (O14744 whole entry): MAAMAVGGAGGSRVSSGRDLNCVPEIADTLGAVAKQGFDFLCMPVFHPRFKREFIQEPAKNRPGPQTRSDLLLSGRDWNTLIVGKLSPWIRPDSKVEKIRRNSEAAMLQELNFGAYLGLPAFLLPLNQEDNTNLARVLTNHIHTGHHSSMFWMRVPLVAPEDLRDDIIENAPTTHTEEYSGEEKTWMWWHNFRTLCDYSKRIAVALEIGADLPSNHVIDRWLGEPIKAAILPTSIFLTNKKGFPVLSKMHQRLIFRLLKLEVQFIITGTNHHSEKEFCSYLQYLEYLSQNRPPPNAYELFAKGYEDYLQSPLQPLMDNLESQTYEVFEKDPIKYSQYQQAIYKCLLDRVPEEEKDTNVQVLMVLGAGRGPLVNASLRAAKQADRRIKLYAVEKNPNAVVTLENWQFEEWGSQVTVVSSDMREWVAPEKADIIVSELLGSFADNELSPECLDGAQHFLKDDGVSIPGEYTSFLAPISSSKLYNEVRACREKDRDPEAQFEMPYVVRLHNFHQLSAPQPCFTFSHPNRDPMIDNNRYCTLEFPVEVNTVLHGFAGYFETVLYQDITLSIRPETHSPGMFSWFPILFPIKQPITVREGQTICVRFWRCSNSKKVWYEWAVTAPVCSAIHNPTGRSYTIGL
T1 sequence (Q9BQA1 whole entry partner): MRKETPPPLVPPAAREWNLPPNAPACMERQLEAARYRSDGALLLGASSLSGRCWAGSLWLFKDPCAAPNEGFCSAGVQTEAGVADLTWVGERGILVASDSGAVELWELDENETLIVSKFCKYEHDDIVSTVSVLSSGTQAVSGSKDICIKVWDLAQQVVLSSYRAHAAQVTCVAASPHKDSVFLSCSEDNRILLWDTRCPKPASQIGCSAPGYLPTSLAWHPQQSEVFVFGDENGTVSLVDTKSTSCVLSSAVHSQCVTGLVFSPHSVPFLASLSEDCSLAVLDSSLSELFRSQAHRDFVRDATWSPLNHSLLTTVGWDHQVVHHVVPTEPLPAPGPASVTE

With `O=C(NC[C@H](O)CN1CCc2cc(OCc3cnco3)ccc2C1)c1cc(NC2CCC2)nc(N2CCN(C(=O)C3CC3)CC2)c1` [Compound 378, (S)-2-(cyclobutylamino)-6-(4-(cyclopropanecarbonyl)piperazin-1-yl)-N-(2-hydroxy-3-(6-(oxazol-5-ylmethoxy)-3N-dihydroisoquinolin-2(1H)-yl)propyl)isonicotinamide], the IC50 in assay [1] is 50 to 500 nM; in assay [2] (read-out: No Co-factor IC50), 0.5 to 5 µM; in assay [3], 50 to 500 nM; in assay [4], under 1 µM; in assay [5], under 1000 nM. Moreover, in assay [3] (setting [6]), the “SAM/MTA Ratio” value was “A (a Ki ratio greater than or equal to 10 fold between the Ki in the presence of SAM and the Ki in the presence of MTA)”. Besides, in assay [5], the “MTAP Intact/Deleted Ratio” value is “C* (an IC50 ratio of less than 3 fold between the IC50 in the HAP1 MTAP-intact cell line and the HAP1 MTAP-deleted cell line)”.

As for `CCN1CCN(c2cc(C(=O)NC[C@H](O)CN3CCc4c(ccc(OCc5cnco5)c4Cl)C3)cc(NC3CCC3)n2)CC1` [Compound 299, (S)—N-(3-(5-chloro-6-(oxazol-5-ylmethoxy)-3N-dihydroisoquinolin-2(1H)-yl)-2-hydroxypropyl)-2-(cyclobutylamino)-6-(4-ethylpiperazin-1-yl)isonicotinamide], the IC50 in assay [1] was 50 to 500 nM; in assay [2] (read-out: No Co-factor IC50), 0.5 to 5 µM; in assay [3] it was 50 to 500 nM; in assay [4], at least 10 µM; in assay [5], 1000 to 10000 nM. The “SAM/MTA Ratio” value in assay [3] (setting [6]) is “A (a Ki ratio greater than or equal to 10 fold between the Ki in the presence of SAM and the Ki in the presence of MTA)”. In addition, the “MTAP Intact/Deleted Ratio” value in assay [5] was “B* (an IC50 ratio greater than or equal to 3 fold but lower than 10 fold between the IC50 in the HAP1 MTAP-intact cell line and the HAP1 MTAP-deleted cell line)”.

For the compound `CC(=O)N1CC(Nc2cc(C(=O)NC[C@H](O)CN3CCc4c(ccc(OCc5cnco5)c4Cl)C3)nc(N3CCCCC3)n2)C1` [Compound 532], the IC50 is 50 to 500 nM in assay [1]; 0.5 to 5 µM in assay [2]; 50 to 500 nM in assay [3]; at least 10 µM in assay [4]; under 1000 nM in assay [5]. Besides, the “SAM/MTA Ratio” value in assay [3] (setting [7]) was “A (a Ki ratio greater than or equal to 10 fold between the Ki in the presence of SAM and the Ki in the presence of MTA)”. Also, the “MTAP Intact/Deleted Ratio” value in assay [5] was “A* (an IC50 ratio greater than or equal to 10 fold between the IC50 in the HAP1 MTAP-intact cell line and the HAP1 MTAP-deleted cell line)”.

With `Cc1ncoc1COc1ccc2c(c1)CCN(C[C@@H](O)CNC(=O)c1ccc(OC3CCOCC3)cc1)C2` [Compound 475, N-[(2S)-2-hydroxy-3-{6-[(4-methyl-1,3-oxazol-5-yl)methoxy]-1,2,3,4-tetrahydroisoquinolin-2-yl}propyl]-4-(oxan-4-yloxy)benzamide], the IC50 in assay [1] is 500 to 5000 nM; in assay [2], at least 5 µM; in assay [3], 50 to 500 nM; in assay [4], 1 to 10 µM; in assay [5], 1000 to 10000 nM. In addition, the “SAM/MTA Ratio” value in assay [3] (setting [7]) is “A (a Ki ratio greater than or equal to 10 fold between the Ki in the presence of SAM and the Ki in the presence of MTA)”. Further, the “MTAP Intact/Deleted Ratio” value in assay [5] is “C* (an IC50 ratio of less than 3 fold between the IC50 in the HAP1 MTAP-intact cell line and the HAP1 MTAP-deleted cell line)”.

As to `CC(=O)N1CC(Nc2cc(C(=O)NC[C@H](O)CN3CCc4c(ccc(OCc5ocnc5C)c4C)C3)nc(C(C)C)n2)C1` [Compound 575, (S)-6-((1-acetylazetidin-3-yl)amino)-N-(2-hydroxy-3-(5-methyl-6-((4-methyloxazol-5-yl)methoxy)-3A-dihydroisoquinolin-2(1H)-yl)propyl)-2-isopropylpyrimidine-4-carboxamide], the IC50 is 50 to 500 nM in assay [1]; at least 5 µM in assay [2]; 50 to 500 nM in assay [3]; at least 10 µM in assay [4]; 1000 to 10000 nM in assay [5]. Also, in assay [3] (setting [7]), the “SAM/MTA Ratio” value was “A (a Ki ratio greater than or equal to 10 fold between the Ki in the presence of SAM and the Ki in the presence of MTA)”. In assay [5], the “MTAP Intact/Deleted Ratio” value was “B* (an IC50 ratio greater than or equal to 3 fold but lower than 10 fold between the IC50 in the HAP1 MTAP-intact cell line and the HAP1 MTAP-deleted cell line)”.

Take `O=C(NC[C@H](O)CN1CCc2c(ccc(OCc3cnco3)c2Cl)C1)c1ccnc(NC2CCC(F)(F)C2)c1` (stereo partly drawn) [Compound 316, N—((S)-3-(5-chloro-6-(oxazol-5-ylmethoxy)-3,4-dihydroisoquinolin-2(1H)-yl)-2-hydroxypropyl)-2-((3,3-difluorocyclopentyl)amino)isonicotinamide]: the IC50 in assay [1] was 50 to 500 nM; in assay [2] (read-out: No Co-factor IC50), at least 5 µM; in assay [3] it was 50 to 500 nM; in assay [4], at least 10 µM; in assay [5], at least 10000 nM. Further, the “SAM/MTA Ratio” value in assay [3] (setting [6]) was “A (a Ki ratio greater than or equal to 10 fold between the Ki in the presence of SAM and the Ki in the presence of MTA)”. The “MTAP Intact/Deleted Ratio” value in assay [5] is “C* (an IC50 ratio of less than 3 fold between the IC50 in the HAP1 MTAP-intact cell line and the HAP1 MTAP-deleted cell line)”.

Turning to `Cc1ncoc1COc1ccc2c(c1)CCN(C[C@@H](O)CNC(=O)c1cc(NC3COC3)nc(N3CCN(C(=O)C4CC4)CC3)n1)C2` [Compound 400, 2-(4-cyclopropanecarbonylpiperazin-1-yl)-N-[(2S)-2-hydroxy-3-{6-[(4-methyl-1,3-oxazol-5-yl)methoxy]-1,2,3,4-tetrahydroisoquinolin-2-yl}propyl]-6-[(oxetan-3-yl)amino]pyrimidine-4-carboxamide], the IC50 in assay [1] was 50 to 500 nM; in assay [2] (read-out: No Co-factor IC50), 0.5 to 5 µM; in assay [3] it was 50 to 500 nM; in assay [4] it was 1 to 10 µM; in assay [5], under 1000 nM. For the same compound, the “SAM/MTA Ratio” value in assay [3] (setting [6]) is “A (a Ki ratio greater than or equal to 10 fold between the Ki in the presence of SAM and the Ki in the presence of MTA)”. The “MTAP Intact/Deleted Ratio” value in assay [5] was “B* (an IC50 ratio greater than or equal to 3 fold but lower than 10 fold between the IC50 in the HAP1 MTAP-intact cell line and the HAP1 MTAP-deleted cell line)”.

As for `CCCN(C)c1nc(NC2COC2)cc(C(=O)NC[C@H](O)CN2CCc3c(ccc(OCc4cnco4)c3Cl)C2)n1` [Compound 312, (S)—N-(3-(5-chloro-6-(oxazol-5-ylmethoxy)-3N-dihydroisoquinolin-2(1H)-yl)-2-hydroxypropyl)-2-(methyl(propyl)amino)-6-(oxetan-3-ylamino)pyrimidine-4-carboxamide], the IC50 in assay [1] is 50 to 500 nM; in assay [2] (read-out: No Co-factor IC50), 0.5 to 5 µM; in assay [3], 50 to 500 nM; in assay [4] it was at least 10 µM; in assay [5], 1000 to 10000 nM. The “SAM/MTA Ratio” value in assay [3] (setting [6]) is “A (a Ki ratio greater than or equal to 10 fold between the Ki in the presence of SAM and the Ki in the presence of MTA)”. Also, the “MTAP Intact/Deleted Ratio” value in assay [5] was “B* (an IC50 ratio greater than or equal to 3 fold but lower than 10 fold between the IC50 in the HAP1 MTAP-intact cell line and the HAP1 MTAP-deleted cell line)”.

On to `Cc1ncoc1COc1ccc2c(c1)CCN(C[C@@H](O)CNC(=O)c1cc(NC3CCC3)nc(NC3CCC3)c1)C2` [Compound 636, (S)-2,6-bis(cyclobutylamino)-N-(2-hydroxy-3-(6-((4-methyloxazol-5-yl)methoxy)-3N-dihydroisoquinolin-2(1H)-yl)propyl)isonicotinamide], for which the IC50 in assay [1] was 50 to 500 nM; in assay [2] (read-out: No Co-factor IC50) it was 0.5 to 5 µM; in assay [3], 50 to 500 nM; in assay [4] it was 1 to 10 µM; in assay [5] it was under 1000 nM. For the same compound, the “SAM/MTA Ratio” value in assay [3] (setting [6]) is “A (a Ki ratio greater than or equal to 10 fold between the Ki in the presence of SAM and the Ki in the presence of MTA)”. The “MTAP Intact/Deleted Ratio” value in assay [5] is “B* (an IC50 ratio greater than or equal to 3 fold but lower than 10 fold between the IC50 in the HAP1 MTAP-intact cell line and the HAP1 MTAP-deleted cell line)”.

With `Cc1ncoc1COc1ccc2c(c1C)CCN(C[C@@H](O)CNC(=O)c1cc(NC3CCC3)nc(N3CCN(C(=O)C4CC4)CC3)c1)C2` [Compound 411, 2-(cyclobutylamino)-6-(4-cvclopropanecarbonylpiperazin-1-yl)-N-[(2S)-2-hydroxy-3-{5-methyl-6-[(4-methyl-1,3-oxazol-5-yl)methoxy]1,2,3,4-tetrahydroisoquinolin-2-yl}propyl]pyridine-4-carboxamide], the 50% inhibitory concentration (IC50) is 50 to 500 nM in assay [1]; 0.5 to 5 µM in assay [2] (read-out: No Co-factor IC50); 50 to 500 nM in assay [3]; at least 10 µM in assay [4]; under 1000 nM in assay [5]. In addition, the “SAM/MTA Ratio” value in assay [3] (setting [6]) is “A (a Ki ratio greater than or equal to 10 fold between the Ki in the presence of SAM and the Ki in the presence of MTA)”. Besides, the “MTAP Intact/Deleted Ratio” value in assay [5] was “A* (an IC50 ratio greater than or equal to 10 fold between the IC50 in the HAP1 MTAP-intact cell line and the HAP1 MTAP-deleted cell line)”.

One may read the IC50 as the concentration needed to halve the response being measured.
